From patent publication US20240293558A1, “KRAS INHIBITOR CONJUGATES” (Erasca, Inc., priority 2021, published 2024)
Read-outs that look alike come from different tables or passages of the source.

Experiments:
[1] = biological target: T1, KRas G12D fused to HiBiT peptide (Homo sapiens, UniProt P01116, G12D); test: ASPC-1 HiBit assay to determine G12D degradation; assay type: cell-based; conditions: AsPC-1 HiBiT cells, 24-hour incubation; read-out: ASPC-1 HiBit DC50 (C)
T1 construct: endogenous in cells; host or cells: AsPC-1 HiBiT knock-in single clone (Cas9 RNP + ssODN)
T1 sequence (P01116 1-188 isoform P01116-2 G12D): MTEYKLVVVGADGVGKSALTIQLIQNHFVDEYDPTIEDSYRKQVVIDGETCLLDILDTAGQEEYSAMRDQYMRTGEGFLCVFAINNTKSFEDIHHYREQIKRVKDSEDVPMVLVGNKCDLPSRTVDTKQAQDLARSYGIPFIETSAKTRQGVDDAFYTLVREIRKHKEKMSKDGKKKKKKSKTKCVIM
In short: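 Homozygous AsPC-1 clone with N-terminal HiBiT knock-in on endogenous KRas G12D, 24 h compound exposure, top dose 10 μM, 3-fold, 10 points, 1% DMSO. Lytic HiBiT luminescence normalised to DMSO and inhibitor controls gives % degradation; DC50 from 4-parameter fit after hook-effect points removed.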

KRAS (WT) = biological target: T2, KRAS (WT) (Homo sapiens, UniProt P01116); test: In-vitro RAS-RAF binding assay (RRB), HTRF/FRET; assay type: biochemical; conditions: read-out: Inhibition of RAS-RAF Binding (in-vitro) KRAS (WT) IC50
T2 construct: Biotinylated KRAS protein amino acids 1-169 (produced at Erasca); made in house
T2 sequence (P01116 1-169 isoform P01116-2): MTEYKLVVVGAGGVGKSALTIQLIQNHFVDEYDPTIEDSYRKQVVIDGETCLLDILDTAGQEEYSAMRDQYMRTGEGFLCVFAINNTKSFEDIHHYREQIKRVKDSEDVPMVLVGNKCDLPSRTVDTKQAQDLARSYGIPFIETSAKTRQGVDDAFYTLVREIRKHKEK
In short: (§1)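 Compounds preincubated with terbium-labelled biotinylated KRAS (aa 1-169, 30 nM) before 60 min SOS1-catalysed exchange to GTPgS. Binding of the d2-labelled cRAF RBD (30 nM) is read as FRET at equilibrium in duplicate. Buffer: 50 mM HEPES pH 7.5, 100 mM NaCl, 1 mM MgCl2, 1 mM DTT.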

KRAS G12D = KRAS G12D (Homo sapiens, UniProt P01116, G12D); test: In-vitro RAS-RAF binding assay (RRB), HTRF/FRET; assay type: biochemical; design: Biotinylated KRAS protein amino acids 1-169 (produced at Erasca); made in house; conditions: read-out: Inhibition of RAS-RAF Binding (in-vitro) KRAS (G12D) IC50
Sequence of KRAS G12D (P01116 1-169 isoform P01116-2 G12D): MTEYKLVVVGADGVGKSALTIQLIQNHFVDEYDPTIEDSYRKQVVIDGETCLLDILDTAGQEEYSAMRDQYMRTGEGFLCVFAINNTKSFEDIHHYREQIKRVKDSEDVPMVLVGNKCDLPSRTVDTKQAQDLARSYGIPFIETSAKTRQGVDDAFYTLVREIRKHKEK
In short: as §1

[2] = Table 2, average of multiple runs of each compound

C[C@H](NC(=O)[C@@H]1C[C@@H](O)CN1C(=O)[C@@H](NC(=O)CCOCCCN1CCC[C@H]1COc1nc(N2CC3CCC(C2)N3)c2cc(C(F)(F)F)c(-c3ccc(F)c4sc(N)c(C#N)c34)c(F)c2n1)C(C)(C)C)c1ccc(-c2c(F)cccc2F)cc1 (single isomer, unassigned) [Example 20]
DC50 [1]: 22.7 nM
IC50 (KRAS (WT); [2]): 26.9 nM
IC50 (KRAS G12D; [2]): 8.52 nM

Cc1ncsc1-c1ccc([C@H](C)NC(=O)[C@@H]2C[C@@H](O)CN2C(=O)[C@@H](NC(=O)CCOCCCN2CCCC2COc2nc(N3CC4CCC(C3)N4)c3cc(Cl)c(-c4ccc(F)c5sc(N)c(C#N)c45)c(F)c3n2)C(C)(C)C)cc1 (stereo partly drawn) [Example 8, (2S,4R)-1-[(2S)-2-[3-[3-[2-[[7-(2-amino-3-cyano-7-fluoro-benzothiophen-4-yl)-6-chloro-4-(3,8-diazabicyclo[3.2.1]octan-3-yl)-8-fluoro-quinazolin-2-yl]oxymethyl]pyrrolidin-1-yl]propoxy]propanoylamino]-3,3-dimethyl-butanoyl]-4-hydroxy-N-[(1S)-1-[4-(4-methylthiazol-5-yl)phenyl]ethyl]pyrrolidine-2-carboxamide]
DC50 [1]: 126 nM
IC50 (KRAS (WT); Table 1): 51 nM
IC50 (KRAS (WT); [2]): 25.9 nM
IC50 (KRAS G12D; Table 1): 11 nM
IC50 (KRAS G12D; [2]): 8.18 nM
